In patent US8586548B2, “NAP alpha-aminoisobutyric acid analog with neuroprotective activity” (Ramot at Tel-Aviv University, Ltd., priority 2009, dated 2013):
Non-standard residues stand in square brackets, D forms with d. No end group written: not given here. Aib = CC(C)(N)C(=O)O

Experiments:
[1] = test system: cerebral cortical cultures derived from newborn rats; experiment: Neuronal survival in cerebral cortical cultures treated with beta-amyloid peptide (1-42); format: cell-based, rat; details: for protection of neurons against neurotoxicity of beta-amyloid peptide 1-42 (neuronal cell numbers): 2.5 μM beta-amyloid peptide (1-42), peptide 10^−16M to 10^−10M, p<0.001, FIG. 1; for neuroprotective activity compared with unmodified NAP: FIG. 1 compared with FIG. 2, 2.5 micromolar beta amyloid peptide
Protocol: All peptides were dissolved in distilled sterile water to a concentration of 1 mM and then diluted in water in 1:10 steps up to the required concentration. The beta-amyloid peptide (1-42) was obtained from American Peptides, Calif., USA.
Cerebral cortical cultures derived from newborn rats were used for neuron survival assays. For mixed neuroglial cultures, neurons 300,000 cells/35 mm dish were seeded on 8-day-old astrocytes prepared as described (Bassan et al., supra (1999); Brenneman et al., supra (2004)). Cells were allowed to grow for one week at 37° C. 10% CO2 before experiments were performed. Four days after neuronal plating, cultures were given their respective treatment and assayed for neuronal survival after an additional 5 day incubation period.
The culture medium was removed and cells were washed twice with phosphate buffered saline (PBS). 1.5 ml of 3% glutaraldehyde (Fluka Biochemika, Steinheim, Germany) in 0.1 M cacodylic acid pH 7.2 (Fluka Biochemika, Steinheim, Germany) was added for two hours. The cells were then washed with PBS and 2 ml of 0.15 M cacodylic acid pH 7.2 was added. Neuronal identity was established by morphological criteria using an Olympus CK2 light microscope (Olympus, Japan) with a X40 lens. Fifty fields were counted in each dish (Zemlyak et al., supra (2000)).
The number of surviving neurons was assessed in cerebral cortical cultures derived from newborn rats using the beta-amyloid peptide (1-42), an Alzheimer's disease-associated toxin, at 2.5 μM. Alpha-aminoisobutric NAP was used at the following concentrations: 10^−16M, 10^−15M, 10^−12M, 10^−10M. […] Cell counts totaled>100% of control, because the treatment prevents neuronal cell death that occurred naturally in the cultures (10-20%), as observed before (Bassan et al., supra (1999)). […] This is an unexpected finding in view of previous reports that describe the SIP motif as essential for NAP neuroprotection (Wilkemeyer et al., Proc Natl Acad Sci USA, 100(14):8543-8 (2003)).

[2] = test system: ADNP^+/− male mice; experiment: Morris water maze test; format: in vivo, mouse
Protocol: The heterozygous ADNP mice were generated as before (Pinhasov et al., Brain Res. Dev. Brain Res. 2003, 144:83-90; and Vulih-Shultzman et al., J Pharmacol Exp Ther. 2007, 323(2):438-49). To avoid any variability in results associated with the estrous cycle in females, only ADNP^+/− male mice are use for behavioral experiments.
Iso-NAP (NAXaaVSIXaaQ; SEQ ID NO:1) was dissolved in a vehicle solution, in which each milliliter included 7.5 mg of NaCl, 1.7 mg of citric acid monohydrate, 3 mg of disodium phosphate dihydrate, and 0.2 mg of benzalkonium chloride solution (50%). Iso-NAP or vehicle solution (DD) was administered to mice handheld in a semi-supine position with nostrils facing the investigator. A pipette tip was used to administer 2.5 μl/each nostril. The mouse was handheld until the solution is entirely absorbed. Nasal Iso-NAP application was performed daily, once a day, for 2 weeks for the Morris water maze test. In the 2nd week, Iso-NAP was applied 1 h before the daily test (see below), which was conducted for 5 consecutive days. In the passive avoidance test, all mice were treated for a total of 7 days, on the 7th day of treatment the test began. Iso-NAP was applied 1 h before the test.
The mouse is placed in a pool of water that is colored opaque with powdered non-fat milk, where it must swim to a hidden escape platform. The position of the platform is altered between days but remains constant within each day. Because it is in opaque water, the mouse cannot see the platform, and cannot rely on scent to find the escape route. As the mouse becomes more familiar with the task, it is able to find the platform more quickly.
Pool diameter—140 cm, Platform—clear plaxiglass, 12 cm in diameter, 2 cm below the surface of the water, Water temperature—22-23° C., Room temperature—26-28° C.
Mice are treated with Iso-NAP/vehicle and then habituated for 1 hour in the experimental room. […] The time requires to reach the platform in each trial is measured. […]

[3] = listed as Alpha-aminoisobutric NAP

Substance: NAXaaVSIXaaQ (NA[Aib]VSI[Aib]Q) [Alpha-aminoisobutyric NAP, both prolines of NAP substituted]
- cell counts ([1]; 2.5 μM beta-amyloid peptide (1-42) plus peptide): > 100 % of control
- protection of neurons against neurotoxicity of beta-amyloid peptide 1-42 (neuronal cell numbers) [1, 3]: protected against neurotoxicity associated with the beta-amyloid peptide 1-42
- protection of neurons against neurotoxicity of beta-amyloid peptide 1-42 (neuronal cell numbers) ([1]; listed as alpha-aminoisobutric NAP): confers protection of neurons
- neuroprotective activity compared with unmodified NAP [1]: increased neuroprotective activity
- neuroprotective activity compared with unmodified NAP [1, 3]: increased activity
- Morris water maze performance (working memory) vs vehicle controls ([2]; 2 μg/5 μl/mouse/day intranasal, third day of testing, P<0.05): performed better than controls
- Morris water maze performance (working memory) vs vehicle controls ([2]; 30 μg/5 μl/mouse/day intranasal, day 2 P<0.05, day 3 P<0.07, listed as Iso-NAP): better than control on testing days 2 and 3
- Morris water maze performance (working memory) vs vehicle controls ([2]; 30 μg/5 μl/mouse/day intranasal, day 2 P<0.05, day 3 P<0.07, listed as IsoNAP): seems to affect the spatial memory
